Data taken from ChEMBL document CHEMBL3734759, “Discovery of a new class of histone deacetylase inhibitors with a novel zinc binding group” (Medchemcomm, 2015).

Assays:
[1] = biological target: Histone deacetylase 2 (Homo sapiens) (UniProt Q92769); conditions: at 20 µM;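 also: recombinant enzyme activity measured with the fluorogenic acetylated lysine substrate Boc-Lys(Ac)-AMC, read on a microplate reader after 30–60 min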
Description: Inhibition of human recombinant HDAC2 at 20 uM using Boc-Lys(Ac)-AMC as substrate after 30 to 60 mins by microplate reader assay

[2] = biological target: Histone deacetylase 3 (Homo sapiens) (UniProt O15379); conditions: at 20 µM;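 also: recombinant enzyme assay with Boc-Lys(Ac)-AMC substrate, fluorescence read on a microplate reader after 30–60 min incubation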
Sequence of Histone deacetylase 3 (Homo sapiens) (O15379 whole entry): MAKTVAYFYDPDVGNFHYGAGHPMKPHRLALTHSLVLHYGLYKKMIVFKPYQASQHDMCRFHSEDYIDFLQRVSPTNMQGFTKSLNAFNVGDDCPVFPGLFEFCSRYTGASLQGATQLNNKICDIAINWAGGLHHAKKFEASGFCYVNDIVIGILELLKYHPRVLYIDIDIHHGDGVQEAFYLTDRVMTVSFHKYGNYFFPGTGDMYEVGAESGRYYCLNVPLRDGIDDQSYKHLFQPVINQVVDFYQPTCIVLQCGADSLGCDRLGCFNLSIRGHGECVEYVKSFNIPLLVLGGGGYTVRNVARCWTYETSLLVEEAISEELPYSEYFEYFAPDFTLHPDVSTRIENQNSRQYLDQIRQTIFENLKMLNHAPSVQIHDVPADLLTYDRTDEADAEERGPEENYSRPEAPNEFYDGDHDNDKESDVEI
Description: Inhibition of human recombinant HDAC3 at 20 uM using Boc-Lys(Ac)-AMC as substrate after 30 to 60 mins by microplate reader assay

[3] = Cytotoxicity against human MV411 cells assessed as growth inhibition after 24 hrs by MTS assay; format: functional, cell-based, MV4-11
[4] = biological target: T1, Histone deacetylase (Homo sapiens) (UniProt Q13547+O15379+Q9UBN7+Q92769+Q9UQL6+Q8WUI4+Q9BY41+Q96DB2+P56524+Q9UKV0+Q969S8); experiment: Inhibition of HDAC in human MV411 cells assessed as increase in H3K9 aceylation after 4 hrs by western blot analysis; format: cell-based; conditions: MV4-11
[5] = biological target: T1, Histone deacetylase (Homo sapiens); experiment: Inhibition of HDAC in human MV411 cells assessed as up regulation of p21 WAF1/CIP1 expression after 4 hrs by western blot analysis; format: cell-based; conditions: MV4-11
[6] = Lipophilicity, LogP of the compound; format: physicochemical; conditions: octanol/water
[7] = Binding affinity to Zn2+ assessed as Zn2+/compound complex formation by ITC analysis
[8] = Homo sapiens, MV4-11, 24 h, read-out: IC50

Sequence of Histone deacetylase 2 (Homo sapiens) (Q92769 whole entry): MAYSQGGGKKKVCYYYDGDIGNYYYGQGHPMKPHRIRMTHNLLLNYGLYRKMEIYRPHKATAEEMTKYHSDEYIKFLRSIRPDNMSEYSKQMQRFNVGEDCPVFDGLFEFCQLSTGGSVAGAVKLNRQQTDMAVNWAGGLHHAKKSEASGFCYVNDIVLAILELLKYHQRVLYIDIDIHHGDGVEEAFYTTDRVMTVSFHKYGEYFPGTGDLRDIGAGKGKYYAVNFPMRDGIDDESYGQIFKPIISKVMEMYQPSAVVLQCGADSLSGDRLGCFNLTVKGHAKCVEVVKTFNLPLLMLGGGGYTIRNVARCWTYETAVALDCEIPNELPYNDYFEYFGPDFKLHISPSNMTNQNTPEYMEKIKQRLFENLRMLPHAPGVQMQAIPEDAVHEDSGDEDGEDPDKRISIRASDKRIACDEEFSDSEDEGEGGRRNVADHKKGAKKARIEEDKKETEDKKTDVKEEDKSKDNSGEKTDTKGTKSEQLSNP

Row | Compound | inhibition [1] | inhibition [2] | also measured
1 | O=C(O)c1ccc(CNC(=O)c2coc(-c3ccccc3O)n2)cc1 | 56.5% | 39.7% | 
2 | O=C(NCCCCNC(=S)NCCC(c1ccccc1)c1ccccc1)c1coc(-c2ccccc2O)n1 | 1.3% | 3.7% | 
3 | O=C(NC(c1ccccc1)c1ccccc1)c1coc(-c2ccccc2O)n1 | 54.1% | 37.8% | IC50 [3, 8]: 7.5 µM; inhibition [4]: Dose-dependent effect; inhibition [5]: Dose-dependent effect; logP [6]: 3.91; Kd [7]: 0.203 µM
4 | O=C(NCc1ccc(-c2ccccc2)cc1)c1coc(-c2ccccc2O)n1 | 52.2% | 40.1% | IC50 [3, 8]: > 100 µM
5 | O=C(NCCC(c1ccccc1)c1ccccc1)c1coc(-c2ccccc2O)n1 | 28.7% | 37.5% | IC50 ([3]; mv4-11): Not Active
6 | O=C(Nc1ccc(-c2ccccc2)cc1)c1coc(-c2ccccc2O)n1 | 31.9% | 30.2% | IC50 ([3]; mv4-11): Not Active
7 | O=C(NO)C(c1ccccc1)c1ccccc1 |  | 76.4% | 
8 | O=C(NCCCCNC(=O)C(c1ccccc1)c1ccccc1)c1coc(-c2ccccc2O)n1 | 0% | 4% | 
9 | O=C(NCCc1c[nH]c2ccccc12)c1coc(-c2ccccc2O)n1 | 36% | 18.9% | 
10 | O=C(O)c1coc(-c2ccccc2O)n1 | 54.8% | 38.7% | 
11 | O=C(NCCCCNCCC(c1ccccc1)c1ccccc1)c1coc(-c2ccccc2O)n1 | 19.7% | 18.1% | 
12 | O=C(Nc1ccccc1)c1coc(-c2ccccc2O)n1 | 29.5% | 22.5% | IC50 [3, 8]: 25 µM
13 | O=C(NCc1cccc2ccccc12)c1coc(-c2ccccc2O)n1 | 45.2% | 32.3% | 
14 | O=C(Nc1ccccc1)c1ccc(CNC(=O)c2coc(-c3ccccc3O)n2)cc1 | 41.3% | 15.8% | 
15 | CC(/C=C/C(=O)NO)=C\[C@@H](C)C(=O)c1ccc(N(C)C)cc1 | 99.2% |  | 
16 | COC(=O)c1coc(-c2ccccc2O)n1 | 30.1% | 39.1% | 
17 | O=C(NCC(c1ccccc1)c1ccccc1)c1coc(-c2ccccc2O)n1 | 34.8% | 23.7% | IC50 [3, 8]: 40 µM
18 | O=C(NCCCCN1C(=O)c2ccccc2C1=O)c1coc(-c2ccccc2O)n1 | 25.4% | 11% | 
19 | O=C(CNC(=O)c1coc(-c2ccccc2O)n1)Nc1ccccc1 | 32% | 36.9% | 
